From US20250057828A1, “COMBINATION OF AN A2-ADRENOCEPTOR SUBTYPE C (ALPHA-2C) ANTAGONIST WITH A NOREPINEPHRINE REUPTAKE INHIBITOR FOR THE TREATMENT OF SLEEP APNEA” (priority 2021, published 2025)

Tested on: pig model of obstructive sleep apnea (OSA)
Experiment: pig model of obstructive sleep apnea (OSA): collapsibility of the upper respiratory tract under negative pressure
Type: in vivo, German Landrace pigs
From the text: The therapeutic potential of the combination of an α2-Adrenoceptor subtype C (alpha-2C) antagonists with a muscarinic receptor antagonist according to the present invention in sleep apnea can be assessed preclinically in a pig model of obstructive sleep apnea (OSA).
Using negative pressure, it is possible to induce collapse and thus obstruction of the upper respiratory tract in anaesthetized, spontaneously breathing pigs (Wirth K. J. et al., Sleep 36(5) (2013) pp. 699-708).
German Landrace pigs are used for the model. The pigs are anaesthetized and tracheotomized. Two tracheal cannulas are inserted into the trachea, one into the rostral part and the other into the caudal part of the trachea. Using a connection piece, the rostral cannula is connected to a tube to the negative pressure device and to the distal tracheal cannula. The distal tracheal cannula is additionally connected to a tube with an open end to atmosphere via a connection piece that served for free tracheal breathing, circumventing the upper airway. By appropriate opening and clamping of those tubes breathing can be switched from nasal breathing to breathing through the caudal tracheal cannula, circumventing the upper airway, and the (isolated) upper airway can be connected to the negative pressure device, causing airflow in the inspiratory direction.
At certain points in time, the collapsibility of the upper respiratory tract is tested by having the pig breathe via the caudal cannula and applying negative pressures of −50, −100 and −150 cm water head (cm H2O) to the upper respiratory tract. This causes the upper respiratory tract to collapse, which manifests itself in an interruption of the airflow and a pressure drop in the tube system. This test is conducted prior to the administration of the test substance and at certain intervals after the administration of the test substance. An appropriately effective test substance can prevent this collapse of the respiratory tract in the inspiratory phase.

[1] = 0.01 mg/kg intraduodenal, 0 min
[2] = 0.01 mg/kg intraduodenal, 30 min
[3] = 0.01 mg/kg intraduodenal, 60 min
[4] = 0.01 mg/kg intraduodenal, 90 min
[5] = 0.01 mg/kg intraduodenal, 120 min
[6] = 0.01 mg/kg intraduodenal, 150 min
[7] = 0.01 mg/kg intraduodenal, 180 min
[8] = 0.01 mg/kg intraduodenal, 240 min
[9] = 0.01 mg/kg intraduodenal, 270 min
[10] = 0.01 mg/kg intraduodenal, 300 min
[11] = intravenous bolus 1 mg/kg + infusion 0.275 mg/kg/h for four hours, 0 min
[12] = intravenous bolus 1 mg/kg + infusion 0.275 mg/kg/h for four hours, 10 min
[13] = intravenous bolus 1 mg/kg + infusion 0.275 mg/kg/h for four hours, 30 min
[14] = intravenous bolus 1 mg/kg + infusion 0.275 mg/kg/h for four hours, 60 min
[15] = intravenous bolus 1 mg/kg + infusion 0.275 mg/kg/h for four hours, 120 min
[16] = intravenous bolus 1 mg/kg + infusion 0.275 mg/kg/h for four hours, 180 min
[17] = intravenous bolus 1 mg/kg + infusion 0.275 mg/kg/h for four hours, 240 min
[18] = intravenous bolus 1 mg/kg followed by infusion of 0,275 mg/kg/h for four hours
[19] = R-oxybutynin intravenous bolus 1 mg/kg + infusion 0.275 mg/kg/h for four hours, 0 min
[20] = R-oxybutynin intravenous bolus 1 mg/kg + infusion 0.275 mg/kg/h for four hours, 10 min
[21] = R-oxybutynin intravenous bolus 1 mg/kg + infusion 0.275 mg/kg/h for four hours, 30 min
[22] = R-oxybutynin intravenous bolus 1 mg/kg + infusion 0.275 mg/kg/h for four hours, 60 min
[23] = R-oxybutynin intravenous bolus 1 mg/kg + infusion 0.275 mg/kg/h for four hours, 120 min
[24] = R-oxybutynin intravenous bolus 1 mg/kg + infusion 0.275 mg/kg/h for four hours, 180 min
[25] = R-oxybutynin intravenous bolus 1 mg/kg + infusion 0.275 mg/kg/h for four hours, 240 min

For C[C@@H]1CCCN(C2CCN(c3ncc(C(=O)NCc4ncc(F)cc4F)s3)CC2)C1 [N-[(3,5-difluoropyridin-2-yl)methyl]-2-[(3R)-3-methyl[1,4′-bipiperidin]-1′-yl]-1,3-thiazole-5-carboxamide], the “inhibited upper airway collapsibility at all negative pressures of −50, −100 and −150 cm head (cm H2O) in all pigs” value (shortened to “inhibited upper airway collapsibility”) (0.01 mg/kg intraduodenal) was “at no time point”, the “upper airway collapsibility at the negative pressures of −50 and −100 cm head (cm H2O)” value (0.01 mg/kg intraduodenal, time point 120 min) was “inhibited” and the “upper airway collapsibility at the negative pressure of −50 cm head (cm H2O)” value (0.01 mg/kg intraduodenal, time point 150 min) was “inhibited”. For the same compound, the “Percent pigs without collaps −50 cm H2O, %” value [1] was 0%, the “Percent pigs without collaps −50 cm H2O, %” value [2] was 0% and the “Percent pigs without collaps −50 cm H2O, %” value [3] was 25%. For the same compound, the “Percent pigs without collaps −50 cm H2O, %” value [4] was 75%, the “Percent pigs without collaps −50 cm H2O, %” value [5] was 100% and the “Percent pigs without collaps −50 cm H2O, %” value [6] was 100%. For the same compound, the “Percent pigs without collaps −50 cm H2O, %” value [7] was 75%, the “Percent pigs without collaps −50 cm H2O, %” value [8] was 50% and the “Percent pigs without collaps −50 cm H2O, %” value [9] was 25%. The “Percent pigs without collaps −50 cm H2O, %” value [10] was 25%, the “Percent pigs without collaps −100 cm H2O, %” value [1] was 0% and the “Percent pigs without collaps −100 cm H2O, %” value [2] was 0%. For the same compound, the “Percent pigs without collaps −100 cm H2O, %” value [3] was 0%, the “Percent pigs without collaps −100 cm H2O, %” value [4] was 75% and the “Percent pigs without collaps −100 cm H2O, %” value [5] was 100%. The “Percent pigs without collaps −100 cm H2O, %” value [6] was 75%, the “Percent pigs without collaps −100 cm H2O, %” value [7] was 50% and the “Percent pigs without collaps −100 cm H2O, %” value [8] was 25%. For the same compound, the “Percent pigs without collaps −100 cm H2O, %” value [9] was 25%, the “Percent pigs without collaps −100 cm H2O, %” value [10] was 0% and the “Percent pigs without collaps −150 cm H2O, %” value [1] was 0%. The “Percent pigs without collaps −150 cm H2O, %” value [2] was 0%, the “Percent pigs without collaps −150 cm H2O, %” value [3] was 0% and the “Percent pigs without collaps −150 cm H2O, %” value [4] was 0%. The “Percent pigs without collaps −150 cm H2O, %” value [5] was 50%, the “Percent pigs without collaps −150 cm H2O, %” value [6] was 25% and the “Percent pigs without collaps −150 cm H2O, %” value [7] was 0%. The “Percent pigs without collaps −150 cm H2O, %” value [8] was 0%, the “Percent pigs without collaps −150 cm H2O, %” value [9] was 0% and the “Percent pigs without collaps −150 cm H2O, %” value [10] was 0%.

With CCN(CC)CC#CCOC(=O)C(O)(c1ccccc1)C1CCCCC1 (stereo not drawn) [oxybutynin, Oxybutynin] the “Percent pigs without collaps −50 cm H2O, %” value [11] was 0%, the “Percent pigs without collaps −50 cm H2O, %” value [12] was 0% and the “Percent pigs without collaps −50 cm H2O, %” value [13] was 0%. The “Percent pigs without collaps −50 cm H2O, %” value [14] was 0%, the “Percent pigs without collaps −50 cm H2O, %” value [15] was 0% and the “Percent pigs without collaps −50 cm H2O, %” value [16] was 0%. For the same compound, the “Percent pigs without collaps −50 cm H2O, %” value [17] was 0%, the “Percent pigs without collaps −100 cm H2O, %” value [11] was 0% and the “Percent pigs without collaps −100 cm H2O, %” value [12] was 0%. For the same compound, the “Percent pigs without collaps −100 cm H2O, %” value [13] was 0%, the “Percent pigs without collaps −100 cm H2O, %” value [14] was 0% and the “Percent pigs without collaps −100 cm H2O, %” value [15] was 0%. The “Percent pigs without collaps −100 cm H2O, %” value [16] was 0%, the “Percent pigs without collaps −100 cm H2O, %” value [17] was 0% and the “Percent pigs without collaps −150 cm H2O, %” value [11] was 0%. For the same compound, the “Percent pigs without collaps −150 cm H2O, %” value [12] was 0%, the “Percent pigs without collaps −150 cm H2O, %” value [13] was 0% and the “Percent pigs without collaps −150 cm H2O, %” value [14] was 0%. The “Percent pigs without collaps −150 cm H2O, %” value [15] was 0%, the “Percent pigs without collaps −150 cm H2O, %” value [16] was 0% and the “Percent pigs without collaps −150 cm H2O, %” value [17] was 0%. The “inhibited upper airway collapsibility” value [18] was “at no time”.

For CCN(CC)CC#CCOC(=O)[C@](O)(c1ccccc1)C1CCCCC1 [R-oxybutynin, R-Oxybutynin], the “upper airway collapsibility at the negative pressure of −50 cm head (cm H2O)” value (R-Oxybutynin intravenous bolus 1 mg/kg + infusion 0,275 mg/kg/h, time point 60 min) was “inhibited”, the “Percent pigs without collaps −50 cm H2O, %” value [19] was 0% and the “Percent pigs without collaps −50 cm H2O, %” value [20] was 0%. The “Percent pigs without collaps −50 cm H2O, %” value [21] was 0%, the “Percent pigs without collaps −50 cm H2O, %” value [22] was 100% and the “Percent pigs without collaps −50 cm H2O, %” value [23] was 0%. The “Percent pigs without collaps −50 cm H2O, %” value [24] was 0%, the “Percent pigs without collaps −50 cm H2O, %” value [25] was 0% and the “Percent pigs without collaps −100 cm H2O, %” value [19] was 0%. The “Percent pigs without collaps −100 cm H2O, %” value [20] was 0%, the “Percent pigs without collaps −100 cm H2O, %” value [21] was 0% and the “Percent pigs without collaps −100 cm H2O, %” value [22] was 50%. The “Percent pigs without collaps −100 cm H2O, %” value [23] was 0%, the “Percent pigs without collaps −100 cm H2O, %” value [24] was 0% and the “Percent pigs without collaps −100 cm H2O, %” value [25] was 0%. For the same compound, the “Percent pigs without collaps −150 cm H2O, %” value [19] was 0%, the “Percent pigs without collaps −150 cm H2O, %” value [20] was 0% and the “Percent pigs without collaps −150 cm H2O, %” value [21] was 0%. The “Percent pigs without collaps −150 cm H2O, %” value [22] was 0%, the “Percent pigs without collaps −150 cm H2O, %” value [23] was 0% and the “Percent pigs without collaps −150 cm H2O, %” value [24] was 0%. The “Percent pigs without collaps −150 cm H2O, %” value [25] was 0% and the “inhibited upper airway collapsibility” value [18] was “at no time”.
